Experimental findings from ChEMBL document CHEMBL1201862, “PubChem BioAssay data set” (2004) are described below.

Holding throughout (assay): NCI anticancer screen, dose series, 48 h
Test [1] concerns 786-0.
Test [2] relates to A549.
The test system of test [3] is BT-549.
Test [4] relates to CAKI-1.
Test [5] relates to HCT-116.
Test [6] relates to HCT-15.
Test [7] concerns HOP-92.
The subject of test [8] is Hs-578T.
For test [9], the system named is IGROV-1.
Test [10] deals with K562.
The subject of test [11] is MCF7.
In test [12] the test system is NCI-H23.
In test [13] the test system is PC-3.
The test system of test [14] is SF-539.
Test [15] concerns SK-MEL-5.
Test [16] has as its system SN12C.
Test [17] concerns SNB-19.
Test [18] concerns UACC-257.
The subject of test [19] is MDA-MB-231.

SMILES strings stand for the structures.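 Interpolation was linear, between the two tested concentrations surrounding the appropriate level; five concentrations were tested over 48 hours in 96-well plates. Abbreviation: GI50, concentration required for 50% inhibition of growth.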 Activity calls are given as the source filed them. No stated cut-off is given here; in the data, active = GI50 up to about 1.1 µM and inactive = higher. Some results are limits rather than exact numbers.

As to `CCOC(=O)CCC(C(=O)OCC)n1nnc2cc(Nc3c(C)[n+]([O-])c4cc(F)c(OCC)cc4[n+]3[O-])ccc21` (stereo not drawn), the GI50 in test [1] was 34.5 µM (inactive); in test [2], > 100 µM (inactive); in test [3], > 100 µM (inactive); in [4], > 100 µM (inactive); in [5] it was > 100 µM (inactive); in test [6] it was more than 100 µM. The GI50 was 25.6 µM (inactive) in test [7]; 30.3 µM (inactive) in test [8]; > 100 µM (inactive) in [9]; > 100 µM (inactive) in test [10]; > 100 µM (inactive) in test [11]; 67.8 µM (inactive) in test [12]. The GI50 was > 100 µM (inactive) in test [13]; 42.6 µM (inactive) in [14]; > 100 µM (inactive) in test [15]; > 100 µM (inactive) in test [16]; 34.8 µM (inactive) in test [17]; > 100 µM (inactive) in test [18].

As for `c1cc(C2=NCCO2)c2ccsc2c1`, the GI50 in test [1] is > 100 µM (inactive); in test [2] it was > 100 µM (inactive); in test [4], > 100 µM (inactive); in test [5] it was > 100 µM (inactive); in [6], more than 100 µM; in test [7], 41.2 µM (inactive). For the same molecule, the GI50 is 22.7 µM (inactive) in [8]; > 100 µM (inactive) in test [9]; > 100 µM (inactive) in test [10]; > 100 µM (inactive) in test [11]; > 100 µM (inactive) in test [19]; > 100 µM (inactive) in [12]. In addition, the GI50 in [13], in test [14], in [15], in [16], in test [17] and in [18] was > 100 µM (inactive) each time.

Consider `CN(C)CCNC(=O)c1cccc2c1Oc1c(cccc1[N+](=O)[O-])O2`, for which the GI50 in test [1] was 0.564 µM (active); in test [2], 0.458 µM (active); in [3], 1.9 µM (inactive); in [4], 0.297 µM (active); in test [5] it was 0.817 µM (active); in test [6] it was 0.544 µM. Further, the GI50 in test [8] is 1.94 µM (inactive); in [9], 1.56 µM (inactive); in [10], 1.45 µM (inactive); in test [11] it was 0.957 µM (active); in [12], 1.44 µM (inactive); in [13], 1.95 µM (inactive). Moreover, the GI50 in test [14] is 1.39 µM (inactive); in test [15] it was 1.28 µM (inactive); in test [16] it was 0.74 µM (active); in [18] it was 2 µM (inactive).

As for `COC(=O)/C=C\n1c(C)cc(=O)[nH]c1=O`, the GI50 is > 100 µM (inactive) in test [1]; > 100 µM (inactive) in [2]; > 100 µM (inactive) in [3]; > 100 µM (inactive) in [5]; more than 100 µM in test [6]; > 100 µM (inactive) in test [7]. Also, the GI50 in test [8] is > 100 µM (inactive); in [9], > 100 µM (inactive); in [10], > 100 µM (inactive); in test [11], 17.1 µM (inactive); in test [12], > 100 µM (inactive); in [13] it was > 100 µM (inactive). The GI50 in [14], in test [15], in test [16], in test [17] and in test [18] was > 100 µM (inactive) in each case.

Consider `O=C(O)CNc1ncc2c(n1)-c1ccccc1OC2`, for which the GI50 in test [1] is > 100 µM (inactive); in [2], > 100 µM (inactive); in test [4] it was > 100 µM (inactive); in test [5] it was > 100 µM (inactive); in [6], more than 100 µM; in test [7] it was > 100 µM (inactive). For the same molecule, the GI50 in [8], in test [9], in [10], in test [11], in test [19] and in test [12] was > 100 µM (inactive) each time. The GI50 in [13], in test [14], in test [15], in test [16], in [17] and in test [18] was > 100 µM (inactive) each time.

As for `Cc1cc(C23OC4COC(C)(C)OC4C2OC(C)(C)O3)nc2ccccc12` (stereo not drawn), the GI50 was > 100 µM (inactive) in [1]; > 100 µM (inactive) in [2]; > 100 µM (inactive) in test [5]; more than 100 µM in test [6]; > 100 µM (inactive) in [7]; 82.2 µM (inactive) in [8]. Further, the GI50 in test [9] was 31.3 µM (inactive); in [10], 44.1 µM (inactive); in test [11] it was > 100 µM (inactive); in [19] it was > 100 µM (inactive); in [12], > 100 µM (inactive); in [13], 78.2 µM (inactive). In addition, the GI50 in test [14], in test [15], in test [16], in test [17] and in test [18] was > 100 µM (inactive) throughout.

Turning to `Cc1ccc2nc3ccccc3c(C3C4C(=O)N(c5ccc(Br)cc5Cl)C(=O)C4ON3C(C(N)=O)c3ccccc3)c2c1` (stereo not drawn), the GI50 in [1] was 20.8 µM (inactive); in test [2], > 25 µM (inactive); in test [4], 4.9 µM (inactive); in [5] it was 13.7 µM (inactive); in test [6] it was 5.77 µM; in test [7], > 25 µM (inactive). In addition, the GI50 in test [8] is > 25 µM (inactive); in [9], 16.7 µM (inactive); in test [10] it was > 25 µM (inactive); in test [11] it was 11.6 µM (inactive); in test [19] it was > 25 µM (inactive); in [12], 0.321 µM (active). The GI50 in [13] was > 25 µM (inactive); in [14], 11.8 µM (inactive); in [15], 19.1 µM (inactive); in test [16] it was 5.47 µM (inactive); in [17], > 25 µM (inactive); in test [18], 15.6 µM (inactive).

`COc1cc(/C=C/C(=O)c2ccc(NS(=O)(=O)c3cc([N+](=O)[O-])ccc3C)cc2)cc(OC)c1OC`: the GI50 in test [1] is 2.74 µM (inactive); in test [2], 3.81 µM (inactive); in test [3] it was 4.27 µM (inactive); in test [4] it was 3.74 µM (inactive); in test [5], 2.38 µM (inactive); in test [6], 3.04 µM. In addition, the GI50 is 2.98 µM (inactive) in test [7]; 3.88 µM (inactive) in [9]; 2.88 µM (inactive) in test [10]; 2.77 µM (inactive) in test [11]; 2.59 µM (inactive) in test [19]; 3.05 µM (inactive) in test [12]. The GI50 is 5.9 µM (inactive) in [13]; 2.18 µM (inactive) in test [14]; 4.18 µM (inactive) in test [15]; 1.87 µM (inactive) in test [16]; 3.85 µM (inactive) in test [17]; 7.53 µM (inactive) in test [18].

As for `Cc1cc(C)n2c(nc3ccccc32)c1C#N`, the GI50 is > 100 µM (inactive) in [1]; > 100 µM (inactive) in test [2]; > 100 µM (inactive) in [3]; > 100 µM (inactive) in test [4]; 54.1 µM (inactive) in test [5]; more than 100 µM in test [6]. Further, the GI50 in test [7] was 22.4 µM (inactive); in [9] it was > 100 µM (inactive); in [10], > 100 µM (inactive); in [11] it was > 100 µM (inactive); in [19] it was 69.2 µM (inactive); in test [12] it was > 100 µM (inactive). The GI50 was > 100 µM (inactive) in test [13]; > 100 µM (inactive) in [14]; 55.7 µM (inactive) in test [15]; > 100 µM (inactive) in test [16]; > 100 µM (inactive) in test [17]; > 100 µM (inactive) in [18].

Regarding `CC1(C)O[C@@H]([C@@H](O)[C@H](O)C2SCCCS2)[C@@H](CO)O1`, the GI50 in test [1] is > 100 µM (inactive); in test [2], > 100 µM (inactive); in [3], > 100 µM (inactive); in test [4], > 100 µM (inactive); in [5] it was > 100 µM (inactive); in test [6], more than 100 µM. Moreover, the GI50 in [7], in test [8], in test [9], in [10], in test [19] and in [12] was > 100 µM (inactive) throughout. For the same molecule, the GI50 in test [13], in [15], in [16], in test [17] and in test [18] was > 100 µM (inactive) in each case.

Take `O=C1N/C(=N/N=C/C(O)C(O)C(O)CO)N/C1=C\c1c[nH]c2ccccc12` (stereo not drawn): the GI50 in test [1] was > 100 µM (inactive); in test [2], > 100 µM (inactive); in [3], > 100 µM (inactive); in test [4], > 100 µM (inactive); in test [5], > 100 µM (inactive); in [6], more than 100 µM. The GI50 in test [7], in test [8], in [9], in [10], in [11] and in test [19] was > 100 µM (inactive) throughout. The GI50 in [12] was > 100 µM (inactive); in test [14], > 100 µM (inactive); in test [15], > 100 µM (inactive); in test [16], > 100 µM (inactive); in test [17] it was 1.93 µM (inactive); in test [18], > 100 µM (inactive).
